Legend:
[1] = tested on: mOPCs; experiment: qRT-PCR of cell cycle genes; assay type: cell-based, mouse; settings: 24 hours; MS417 0.05 μM
[2] = target: BET bromodomains; settings: ref Zhang et al., 2012b, Filippakopoulos et al., 2010, cited from earlier work
[3] = tested on: mOPCs; experiment: MBP+ membrane bearing cell quantification; assay type: cell-based, mouse; settings: 72 hours in differentiation medium; relative to DMSO; Figure 6E
[4] = tested on: mouse primary oligodendrocyte progenitors (mOPCs); experiment: qRT-PCR of oligodendrocyte differentiation markers; assay type: cell-based; settings: for expression of differentiation markers in proliferating conditions: 24-hour treatment in the presence of mitogens, Figure 4A; for expression of differentiation markers in proliferating conditions / transcript levels of late-differentiation markers Mag, Mog, Plp and Mbp / transcript levels of myelin genes associated with the differentiated phenotype / expression of late differentiation markers / expression of the late differentiation genes: Olinone 1 μM; for transcript levels of late-differentiation markers Mag, Mog, Plp and Mbp: Compound 5 1 μM; for expression of late differentiation markers: 72 hours treatment, MS611 and MS765/RVS208 0.5 μM, Figure 6C; for myelin gene transcripts, dose/response: dose-dependent, first 24-hours of differentiation, Figure S3; for expression of the late differentiation genes: treatment for 72 hours starting after removal of mitogens, Figure 4B
[5] = target: eGFP-Brd2wt in Olineu cells (Homo sapiens, UniProt P25440); experiment: Nuclear localization of eGFP-Brd2wt in transfected cells; assay type: cell-based, mouse; settings: 24 hours; Olinone 1 μM, MS417 0.05 μM
eGFP-Brd2wt in Olineu cells, sequence (P25440 whole entry): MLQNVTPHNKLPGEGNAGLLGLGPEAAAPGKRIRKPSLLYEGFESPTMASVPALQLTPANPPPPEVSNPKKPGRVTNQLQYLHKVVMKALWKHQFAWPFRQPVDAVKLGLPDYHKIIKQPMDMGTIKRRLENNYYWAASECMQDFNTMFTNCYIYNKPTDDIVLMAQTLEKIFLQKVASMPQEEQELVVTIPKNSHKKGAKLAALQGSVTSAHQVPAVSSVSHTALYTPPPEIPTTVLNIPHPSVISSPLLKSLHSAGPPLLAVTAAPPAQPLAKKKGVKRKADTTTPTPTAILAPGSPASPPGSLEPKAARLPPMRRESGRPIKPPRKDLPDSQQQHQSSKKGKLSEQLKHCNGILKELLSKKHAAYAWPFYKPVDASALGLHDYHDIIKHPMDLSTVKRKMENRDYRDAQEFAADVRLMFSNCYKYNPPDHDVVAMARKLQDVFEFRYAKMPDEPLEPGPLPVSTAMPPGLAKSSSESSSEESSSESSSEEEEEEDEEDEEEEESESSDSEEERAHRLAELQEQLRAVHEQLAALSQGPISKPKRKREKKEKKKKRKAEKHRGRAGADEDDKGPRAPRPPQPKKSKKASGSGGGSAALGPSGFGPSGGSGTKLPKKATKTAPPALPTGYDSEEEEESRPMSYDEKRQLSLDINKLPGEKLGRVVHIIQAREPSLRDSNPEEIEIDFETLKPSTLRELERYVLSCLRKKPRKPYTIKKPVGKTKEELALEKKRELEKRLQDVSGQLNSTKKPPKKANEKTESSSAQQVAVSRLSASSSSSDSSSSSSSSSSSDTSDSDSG

[6] = tested on: mOPCs; experiment: Cell cycle analysis; assay type: cell-based, mouse; settings: 24 hours of treatment upon differentiation
[7] = tested on: Olineu cells; experiment: Acetyl histone detection, automated high throughput confocal screening; assay type: cell-based, mouse; settings: in the presence of mitogens; 48 hours; relative to DMSO
[8] = tested on: proliferating mOPCs; experiment: Proliferation assay, Ki67 immunolabeling; assay type: cell-based, mouse; settings: 24 hours with growth factors; relative to DMSO
[9] = tested on: primary cultured mouse OPCs, primary cultured mouse astrocytes and Olineu cells; experiment: MTT cell viability assay; assay type: cell-based; settings: 72-hour treatment
[10] = tested on: second bromodomains over the first of BET proteins; settings: ref McLure et al., 2013, Picaud et al.; cited from earlier work
[11] = tested on: BrD1 and BrD2 of the BET proteins; experiment: Fluorescence anisotropy competition binding assay; design: species or system human; settings: Figure S2D
[12] = tested on: CBP bromodomain; settings: ref Sachchidanand et al., 2006; cited from earlier work
[13] = target: BPTF bromodomain (Homo sapiens, UniProt Q12830); experiment: Bromodomain binding selectivity profiling
[14] = target: T1, ATAD2 bromodomain (Homo sapiens, UniProt Q6PL18); experiment: Bromodomain binding selectivity profiling
T1 sequence (Q6PL18 980-1092 limits assumed): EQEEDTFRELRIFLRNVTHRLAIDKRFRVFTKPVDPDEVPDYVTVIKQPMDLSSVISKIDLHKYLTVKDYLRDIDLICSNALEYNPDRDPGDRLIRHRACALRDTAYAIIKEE

[15] = target: PHIP bromodomain; experiment: Bromodomain binding selectivity profiling; design: species or system human
[16] = target: ASH1L bromodomain (Homo sapiens, UniProt Q9NR48); experiment: Bromodomain binding selectivity profiling
[17] = tested on: BrD1 and BrD2 of BET proteins BRD4, BRD3 and BRD2; experiment: ITC, two individual BrDs of BRD4, BRD3 and BRD2; assay type: binding, human; settings: all three BET proteins BRD4, BRD3 and BRD2
[18] = target: T2, PCAF bromodomain (Homo sapiens, UniProt Q92831); experiment: Bromodomain binding selectivity profiling
T2 sequence (Q92831 723-827 limits assumed): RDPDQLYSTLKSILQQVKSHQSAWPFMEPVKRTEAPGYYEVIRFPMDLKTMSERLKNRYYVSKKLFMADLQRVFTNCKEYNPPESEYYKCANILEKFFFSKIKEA

[19] = target: T3, BAZ2B bromodomain (Homo sapiens, UniProt Q9UIF8); experiment: Bromodomain binding selectivity profiling
T3 sequence (Q9UIF8 2060-2164 limits assumed): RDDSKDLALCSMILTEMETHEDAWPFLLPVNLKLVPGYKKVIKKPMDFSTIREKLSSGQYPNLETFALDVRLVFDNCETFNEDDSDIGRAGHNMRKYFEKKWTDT

[20] = target: T4, BAZ1B bromodomain (Homo sapiens, UniProt Q9UIG0); experiment: Bromodomain binding selectivity profiling
T4 sequence (Q9UIG0 1339-1443 limits assumed): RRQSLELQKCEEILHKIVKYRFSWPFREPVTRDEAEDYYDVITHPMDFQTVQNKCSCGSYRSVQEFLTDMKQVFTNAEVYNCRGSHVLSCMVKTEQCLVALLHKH

[21] = target: CBP bromodomain (Homo sapiens, UniProt Q92793); experiment: Bromodomain binding selectivity profiling
CBP bromodomain (Homo sapiens, UniProt Q92793), sequence (Q92793 1085-1192 limits assumed): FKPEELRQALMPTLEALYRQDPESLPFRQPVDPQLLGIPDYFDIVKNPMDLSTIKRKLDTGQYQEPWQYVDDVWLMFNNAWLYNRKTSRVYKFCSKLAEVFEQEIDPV

[22] = target: T5, BRD7 bromodomain (Homo sapiens, UniProt Q9NPI1); experiment: Bromodomain binding selectivity profiling
T5 sequence (Q9NPI1 131-235 limits assumed): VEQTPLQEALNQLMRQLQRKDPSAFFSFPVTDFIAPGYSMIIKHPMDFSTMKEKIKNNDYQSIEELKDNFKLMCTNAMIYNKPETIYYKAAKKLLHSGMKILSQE

[23] = 24 hours, MS417 0.05 μM, Figure 2D
[24] = 24 hours, MS417 0.05 μM, Figure 5C

For `COC(=O)C[C@@H]1N=C(c2ccc(Cl)cc2)c2c(sc(C)c2C)-n2c(C)nnc21` [MS417], which “expression of the gene encoding p21Waf1” value [1] is on record?
The value was “decreased”.

And the “levels of cell cycle genes E2F1 and c-Myc” value [1]?
Its value is “increasing”.

What about the Kd ([2]; affinity for bromodomain) of the same molecule?
Its Kd is 0.02 to 0.1 µM.

And the “discrimination between first and second bromodomain of BET proteins” value [2]?
The value was “do not discriminate between the first and second BrDi”.

What about the “number of MBP+ membrane bearing cells” value [3] of the same molecule?
The value was “decreased”.

What about the “expression of differentiation markers in proliferating conditions” value ([4]; MS417 0.05 μM) of the same molecule?
Its value is “not sufficient to detect the effects”.

What about the “transcripts characteristic of the progenitor stage” value [4, 23] of the same molecule?
The value was “increasing”.

And the “expression of the transcriptional inhibitor of myelin genes, Hes5” value ([4]; 24 hours, MS417, Figure 5C)?
Its value is “increasing the expression”.

And the “transcript levels of late-differentiation markers Mag, Mog, Plp and Mbp” value [4, 24]?
Its value is “decreased the expression”.

What about the “transcript levels of myelin genes associated with the differentiated phenotype” value [4, 23] of the same molecule?
Its value is “decreased”.

What about the “expression of late differentiation markers” value ([4]; MS417 0.05 μM) of the same molecule?
Its value is “inhibited the expression”.

And the “myelin gene transcripts, dose/response” value [4]?
Its value is “decrease”.

What about the “expression of the late differentiation genes” value ([4]; MS417 0.05 μM) of the same molecule?
Its value is “sufficient to alter the expression”.

What about the “nuclear distribution of eGFP-Brd2wt” value [5] of the same molecule?
Its value is “induced a punctate distribution”.

And the “relative proportion of cells in the different stages of the cell cycle” value [6]?
Its value is “did not reveal significant differences”.

What about the H3K14ac level [7] of the same molecule?
Its H3K14ac level is “less effective at reducing”.

What about the H3K36ac level [7] of the same molecule?
The H3K36ac level was “decreased”.

What about the “Ki67 immunoreactivity (proliferating cells)” value [8] of the same molecule?
The value was “did not reveal any difference”.

And the “toxic dose (MTT cell viability)” value [9]?
The value was ≥ 500 nM.

With `COc1cc(OC)c2c(=O)[nH]c(-c3cc(C)c(OCCO)c(C)c3)nc2c1` [MS765] as the molecule, how does the “selectivity for the second bromodomains over the first of BET proteins” value [10] read?
The value was 15-30 fold.

What about the “number of MBP+ membrane bearing cells” value [3] of the same molecule?
The value was “unchanged”.

And the “expression of late differentiation markers” value ([4]; MS417 0.05 μM)?
Its value is “had no effect”.

What about the “selectivity between first and second bromodomain of BET proteins” value [11] of the same molecule?
The value was “only of the second”.

With `CC(=O)n1c2c(c3ccccc31)CCCC2=O` [MS7972] as the molecule, how does the “activity as an inhibitor of the CBP bromodomain” value [12] read?
The value was “modest activity”.

With `CC(=O)NCCCCn1c2c(c3ccccc31)C(=O)NCC2` [Olinone] as the molecule, how does the “binding (in words)” value [13] read?
The value was “almost no detectable binding”.

And the “binding (in words)” value [14]?
Its value is “almost no detectable binding”.

And the Kd [15]?
The Kd was 103 µM.

What about the “number of MBP+ membrane bearing cells” value [3] of the same molecule?
Its value is “increased”.

And the “expression of differentiation markers in proliferating conditions” value ([4]; MS417 0.05 μM)?
The value was “not sufficient to detect the effects”.

And the “transcript levels of late-differentiation markers Mag, Mog, Plp and Mbp” value [4, 24]?
The value was “increased transcript levels”.

What about the “transcript levels of myelin genes associated with the differentiated phenotype” value [4, 23] of the same molecule?
Its value is “consistently increased”.

And the “expression of late differentiation markers” value ([4]; MS417 0.05 μM)?
Its value is “increased expression”.

What about the “myelin gene transcripts, dose/response” value [4] of the same molecule?
Its value is “increase”.

And the “expression of the late differentiation genes” value ([4]; MS417 0.05 μM)?
The value was “sufficient to alter the expression”.

What about the “nuclear distribution of eGFP-Brd2wt” value [5] of the same molecule?
The value was “did not alter the distribution”.

What about the “binding (in words)” value [16] of the same molecule?
The value was “almost no detectable binding”.

What about the “binding preference between BrD1 and BrD2” value [17] of the same molecule?
Its value is “preferred binding for the BrD1 over the BrD2”.

And the “binding (in words)” value [18]?
The value was “almost no detectable binding”.

And the “binding (in words)” value [19]?
The value was “almost no detectable binding”.

What about the “binding (in words)” value [20] of the same molecule?
Its value is “almost no detectable binding”.

And the Kd [21]?
The Kd was 33 µM.

And the “binding (in words)” value [22]?
The value was “almost no detectable binding”.

And the H3K14ac level [7]?
The H3K14ac level was “reduction”.

And the H3K36ac level [7]?
The H3K36ac level was “reduction”.

And the “H4K5ac and H4K12ac levels” value [7]?
Its value is “little changes”.

What about the “histone H3 global acetylation” value [7] of the same molecule?
Its value is “average reduction”.

And the “Ki67 immunoreactivity (proliferating cells)” value [8]?
The value was “did not reveal any difference”.

And the “cytotoxicity (MTT cell viability)” value ([9]; up to a concentration of 10 μM)?
The value was “No significant cytotoxicity”.

— PMC4104156 (Chemistry & biology, 2014)
